The results in this text go back to paper PMC5443783, “Prostaglandin E2 glyceryl ester is an endogenous agonist of the nucleotide receptor P2Y6” (Scientific Reports, 2017).

Test [1] deals with T1, P2Y6 F252A (Homo sapiens, UniProt Q15077, F252A).
T1 construct: expressed in transfected cells; host or cells: HEK293
Nature of the test: IP1 accumulation assay, mutant P2Y6 F252A. In kind it is cell-based. Conditions: for IP1 formation at mutant receptor: Fig. 6d. The text has this: (§1) cDNA from H1819 cells was used to amplify and clone the P2RY6 and CNR2 coding sequences. They were double-tagged with an N-terminal HA epitope and a C-terminal FLAG epitope and, for transient transfection, introduced into the mammalian expression vector pcDps[56]. All mutant constructs were generated by a PCR-based site-directed mutagenesis and fragment replacement strategy. For stable transfection, P2RY6 was sub-cloned into the pIRES-eGFP vector (CLONTECH Laboratories, USA). All constructs were verified by sequencing.
(§2) To measure intracellular IP3 the HitHunter® Inositol (1,4,5) Triphosphate Assay (DiscoveRx, USA) was used according to manufacturer′s protocol. HEK293 cells stably transfected with hP2RY6 were seeded in a 384-well Black microtiter plate (15,000 cells/well) (Greiner Bio One, Germany) and incubated with indicated concentrations of UDP and PGE2-G for 20 seconds. Reaction was stopped by adding 5 µl 0.2 N perchloric acid and measurement of IP3 was performed with the Fusion AlphaScreen multilabel reader (PerkinElmer Life Sciences) according to manufacturer′s protocol. To measure IP1, HEK293 cells expressing wildtype and mutant P2Y6 were seeded into 384-well plates (5,000 cells/well) 24 h prior assay. After aspiration of the medium, cells were incubated with indicated concentrations of agonists/antagonist for 1 h. IP1 measurements using the IP-one HTFR® assay kit (Cisbio assays, USA) were performed according to manufacturer′s protocol. The assays were performed with a final concentration of 1% DMSO.

Test [2] addresses T2, P2Y6 (Homo sapiens, UniProt Q15077). Nature of the test: Functional readouts at P2Y6, summary statements. Conditions: for EC50: summary value. In kind it is cell-based.
Test [3] deals with HEK293 cells. Nature of the test: Intracellular Ca2+ measurement in non-transfected HEK293 cells. Type of test: cell-based, human. The following applies: for effect on intracellular Ca2+: non-transfected HEK293 cells. As for the experimental part:
(§3) For fluorometric measurements of intracellular Ca^2+ levels with the FlexStationII instrument (Molecular Devices), RAW264.7 and H1819 cells were seeded into 96-well plates (3.0 × 10^4 cells/well) 24 h prior to assay. Ca^2+ measurements with transiently transfected HEK293 cells were performed 48 h after transfection. Cells were loaded with 200 µl Calcium 5 reagent (Explorer Kit, Molecular Devices, USA) for 60 min at 37 °C, and the assay was performed as described. Agonists and inhibitors were solved in DMSO (100x) and diluted […] in 96-well compound plates containing HBSS. 50 µl of compound solution were added to the assay plate resulting in final concentration of 1% DMSO. Fold-response was calculated by RFUmax − RFUmin (ligand)/RFUmax − RFUmin (vehicle). EC50 values were calculated by using GraphPad Prism6 software (GraphPad, USA).

Test [4] has as its target T2, P2Y6. Put plainly: Agonist-induced receptor internalization, cell surface ELISA. Type of test: cell-based. Details: expressed in transfected cells; host or cells: HEK293. The following applies: HEK293 transiently transfected with hP2RY6, time-dependent, Fig. 5e. As for the experimental part: (§4) To estimate cell surface expression of heterologously expressed receptors carrying an N-terminal HA tag, an indirect cellular ELISA was used[57]. To determine the endogenous cell surface expression of P2Y6, the same ELISA procedure was performed with minor modifications. Briefly, after 4% paraformaldehyde fixation and blocking with 10% FBS, cells were incubated with the primary anti-P2Y6 antibody (sc-15215; Santa Cruz Biotechnology, USA) in 1:1,000 dilution for 1 h. After washing with PBS, cells were incubated with peroxidase-conjugated secondary antibody anti-goat IgG (sc-2020, Santa Cruz Biotechnology, USA) in 1:5,000 dilutions.
(An ELISA detects its analyte on a solid surface through an enzyme-linked reagent.)

Test [5] deals with T3, P2Y6 Y75A (Homo sapiens, UniProt Q15077, Y75A).
T3 construct: expressed in transfected cells; host or cells: HEK293
Nature of the test: IP1 accumulation assay, mutant P2Y6 Y75A. In kind it is cell-based. Conditions: for IP1 formation at mutant receptor: Fig. 6d.
Excerpt: as §1, §2

Test [6] relates to H1819 cells. Nature of the test: Intracellular Ca2+ measurement in H1819 cells. In kind it is cell-based, human. Here is the method: as §3
Test [7] addresses T2, P2Y6. Nature of the test: IP1 accumulation assay in HEK293 cells transfected with wildtype P2RY6. Type of test: cell-based. Details: expressed in transfected cells; host or cells: HEK293. Here is the method: as §2
For test [8], the target named is T2, P2Y6. Put plainly: ERK1/2 phosphorylation (AlphaScreen SureFire) in P2RY6-transfected HEK293 cells. In kind it is cell-based. Details: expressed in transfected cells; host or cells: HEK293. Conditions: P2RY6-transfected HEK293 cells, Fig. 3b. Here is the method: Cells were transferred to serum-free medium 2 h prior to assay. Ligands and controls (10 µl of 10× concentrates) were added to 90 µl medium and incubated for 5 min at 37 °C. The final concentration of DMSO was 0.2%. The reaction was stopped by aspiration of the medium and addition of 50 µl lysis buffer (PerkinElmer Life Sciences). To measure ERK1/2 phosphorylation, the AlphaScreen® SureFire ERK 1/2 assay kit (PerkinElmer Life Sciences) was used with the high sensitivity protocol. Phosphorylated ERK1/2 was measured in 384-well white OptiPlate microplates (PerkinElmer Life Sciences) with the Fusion AlphaScreen multilabel reader (PerkinElmer Life Sciences).
A general note: Alpha assays give light when donor and acceptor beads are brought close together.

The target of test [9] is T4, human TSH receptor (TSHR) (Homo sapiens, UniProt P16473).
T4 construct: HA tag (N); expressed in transfected cells; host or cells: HEK293
Nature of the test: Cell surface expression of TSH receptor, cell surface ELISA. In kind it is cell-based. Conditions: HEK293 transfected with HA-tagged human TSHR, Fig. 5e. Here is the method:
as §4

“Also recorded” adds a separate entry of the source.

T2 sequence (Q15077 whole entry): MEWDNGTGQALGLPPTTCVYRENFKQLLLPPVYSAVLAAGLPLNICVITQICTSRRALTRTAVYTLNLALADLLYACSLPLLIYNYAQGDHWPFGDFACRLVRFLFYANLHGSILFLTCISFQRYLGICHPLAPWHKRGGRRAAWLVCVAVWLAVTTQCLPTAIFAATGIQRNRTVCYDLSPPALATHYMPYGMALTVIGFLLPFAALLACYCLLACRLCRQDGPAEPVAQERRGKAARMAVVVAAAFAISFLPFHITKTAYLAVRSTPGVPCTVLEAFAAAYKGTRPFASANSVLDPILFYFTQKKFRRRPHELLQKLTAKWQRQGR
T1 sequence (Q15077 whole entry F252A): as the sequence (Q15077 whole entry) above, with F252A counted along it
T3 sequence (Q15077 whole entry Y75A): as the sequence (Q15077 whole entry) above, with Y75A counted along it
T4 sequence (P16473 21-764): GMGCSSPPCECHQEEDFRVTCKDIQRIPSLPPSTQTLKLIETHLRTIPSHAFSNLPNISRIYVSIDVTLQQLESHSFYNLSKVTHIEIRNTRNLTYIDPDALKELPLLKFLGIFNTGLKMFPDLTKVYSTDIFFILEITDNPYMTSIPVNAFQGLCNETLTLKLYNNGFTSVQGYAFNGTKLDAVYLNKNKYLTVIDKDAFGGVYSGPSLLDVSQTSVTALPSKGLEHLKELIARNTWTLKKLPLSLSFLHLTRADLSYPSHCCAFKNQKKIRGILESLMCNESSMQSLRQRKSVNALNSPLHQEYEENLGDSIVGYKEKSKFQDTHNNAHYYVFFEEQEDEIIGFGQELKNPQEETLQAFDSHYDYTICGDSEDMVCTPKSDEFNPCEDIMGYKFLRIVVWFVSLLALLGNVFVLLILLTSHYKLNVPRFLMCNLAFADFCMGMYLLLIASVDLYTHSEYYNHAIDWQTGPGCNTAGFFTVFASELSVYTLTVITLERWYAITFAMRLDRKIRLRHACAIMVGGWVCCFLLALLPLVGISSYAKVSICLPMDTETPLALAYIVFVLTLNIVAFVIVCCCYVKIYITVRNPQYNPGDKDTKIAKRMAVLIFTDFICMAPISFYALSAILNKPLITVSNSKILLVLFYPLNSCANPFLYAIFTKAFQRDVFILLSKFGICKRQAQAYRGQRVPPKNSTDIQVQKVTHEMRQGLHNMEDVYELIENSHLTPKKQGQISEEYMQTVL

By EC50 is commonly meant the midpoint of the concentration-response curve. `O=c1ccn([C@@H]2O[C@H](COP(=O)(O)OP(=O)(O)O)[C@@H](O)[C@H]2O)c(=O)[nH]1` [UDP]: the EC50 is 12.7 ± 2.1 nM in test [1] (Fig. 6e); roughly 50 nM in test [2]; 15.4 ± 0.9 nM in [5] (Fig. 6e); 25.9 ± 2.8 nM in test [6] (Fig. 1d, read-out: EC50, intracellular Ca2+ release); 77.3 ± 3.4 nM in [7] (HEK293 stably transfected with P2RY6, Fig. 5); 18.9 ± 2.3 nM in test [7] (agonist alone, HEK293 transfected with P2RY6, Fig. 6a). In addition, the “IP1 formation at mutant receptor” value in test [1] and in [5] was “efficacy remained unchanged” in each case. Further, the “effect on intracellular Ca2+” value in test [3] is reported as “no effect”. The “agonist-induced internalization of P2Y6 (cell surface expression)” value in [4] is on record as “cell surface expression levels of P2Y6 were reduced; also recorded: induced a time-dependent internalization”. For the same molecule, the ERK1/2 phosphorylation result in [8] was “led to ERK1/2 phosphorylation; also recorded: induce ERK1/2 phosphorylation”. Moreover, in test [9], the “effect on cell surface expression of the TSH receptor” value is given as “no effect”.
As to “Prostaglandin E2 glyceryl ester [PGE2-G]”, the “IP1 formation at mutant receptor” value in test [1] and in [5] was “loss of PGE2-G-induced IP1 formation” throughout. The Emax values result in test [2] (most functional assays, Figs 3a–c and 6a) is “slightly lower compared to UDP”. For the same molecule, the EC50 in [2] is roughly 0.001 nM. Besides, the “Maximum RFU for PGE2-G” value is listed as 2,193 ± 252 RFU in test [3] (HEK293 cells, control (1% DMSO) 2,106 ± 1,193) and 13,143 ± 2,157 RFU in test [6] (control (1% DMSO) 5,247 ± 2,016). Further, in [3], the “effect on intracellular Ca2+” value is listed as “no effect”. Further, the “agonist-induced internalization of P2Y6 (cell surface expression)” value in [4] was “cell surface expression levels of P2Y6 were reduced; also recorded: induced a time-dependent internalization”. Also, the “ratio of EC50 values UDP / PGE2-G” value in test [7] (IP1 accumulation, Fig. 6a) is given as ~ 63,000. Moreover, in test [8], the ERK1/2 phosphorylation result is listed as “led to ERK1/2 phosphorylation; also recorded: induce ERK1/2 phosphorylation”. For the same molecule, in test [9], the “effect on cell surface expression of the TSH receptor” value is “no effect”.
